Laboratory results published in PMC11925246 (Journal of Bacteriology, 2025).
Where “and” joins values, the source holds several entries; their conditions need not be identical. Equal values may be shown once. Read-outs that look alike come from different tables or passages of the source.

Assays:
[1] = molecular target: periplasmic domain of Rsc1598 (Ralstonia pseudosolanacearum, UniProt Q8XZ08); assay: biochemical; type: binding, R. pseudosolanacearum OE1-1
[2] = system: hrpB expression; type: cell-based, R. pseudosolanacearum; conditions: hrpB-lacZ resting cells, 25°C; for Induction of hrpB expression by organic acids: organic acid 0.1 mM, 20 h (Fig. 5); for Induction of hrpB expression by sugars: sugar 0.01%, 20 h (Fig. 6)
[3] = system: hrpB expression; type: cell-based, R. pseudosolanacearum; conditions: malic acid 0.5 mM or sucrose 0.01%, quarter-strength M63 with 0.25% glucose, 28 °C, 5 h (Fig. S4)

Sequence of periplasmic domain of Rsc1598 (Q8XZ08 99-319 limits assumed): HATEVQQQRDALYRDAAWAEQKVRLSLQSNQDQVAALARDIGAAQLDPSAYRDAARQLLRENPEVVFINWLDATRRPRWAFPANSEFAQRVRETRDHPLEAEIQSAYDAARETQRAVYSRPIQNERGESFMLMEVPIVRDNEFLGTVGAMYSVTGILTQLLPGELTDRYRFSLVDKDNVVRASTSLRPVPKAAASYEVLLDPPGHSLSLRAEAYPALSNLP

SMILES	Kd ([1]; Kd)	Induction of hrpB expression by organic acids [2]	Induction of hrpB expression by sugars [2]	further results
O=C(O)CC(O)(CC(=O)O)C(=O)O [Citric acid, citric acid]				Kd ([1]; Kd, Average of titrations, 25°C, pH 7.6): 155 ± 80.7 µM; Kd ([1]; Kd, ITC single titration, ligand 4 mM, 25°C, 50 mM sodium phosphate buffer pH 7.6, protein 40 µM): 137 µM; Kd ([1]; Kd, ITC single titration, ligand 5 mM, 25°C, 50 mM sodium phosphate buffer pH 7.6, protein 40 µM): 84.5 µM; Kd ([1]; Kd, ITC single titration, ligand 6 mM, 25°C, 50 mM sodium phosphate buffer pH 7.6, protein 40 µM): 243 µM
O=CO [Formic acid, formic acid]				Kd ([1]; ITC single titration, ligand 5 mM, 25°C, 50 mM sodium phosphate buffer pH 7.6, protein 40 µM, read-out: Kd): 71.5 µM; Kd ([1]; ITC single titration, ligand 6 mM, 25°C, 50 mM sodium phosphate buffer pH 7.6, protein 40 µM, read-out: Kd): 231 µM
O=C(O)/C=C/C(=O)O [Fumaric acid, fumaric acid]	47 µM and 56.3 µM			Kd ([1]; pH 7.6): smaller than that of malic acid
O=C(O)[C@@H]1CCC(O)=N1 [L-pyroglutamic acid]	41 µM and 43.2 µM and 194 µM	induced high levels of hrpB expression		
O=C(O)CC(O)C(=O)O (centres unmarked) [Malic acid, malic acid]	68.4 µM and 64.3 µM and 89 µM and 65 µM	induced high levels of hrpB expression		Induction of hrpB-lacZ expression in growing cells [3]: induced hrpB expression
O=C(O)C(=O)O [Oxalic acid, oxalic acid]	229 µM and 151 µM			
O=C(O)CCC(=O)O [Succinic acid, succinic acid]	29.5 µM and 190 µM	induced high levels of hrpB expression		
O=C(CO)[C@@H](O)[C@H](O)[C@H](O)CO [fructose]			induced hrpB expression	
OC[C@H]1OC(O)[C@H](O)[C@@H](O)[C@@H]1O (some centres unmarked) [glucose]			induced hrpB expression	
OC[C@H]1O[C@@](CO)(O[C@H]2O[C@H](CO)[C@@H](O)[C@H](O)[C@H]2O)[C@@H](O)[C@@H]1O [sucrose]			the most effective sugar	Induction of hrpB-lacZ expression in growing cells [3]: minimal induction
